For test [1], the system named is Th1/17 differentiation, B cell effector functions and production of inflammatory cytokines (IL-6, TNF-α, IL-23). Particulars: cited from earlier work.
Test [2] relates to mouse CAIA and CIA arthritis models. Particulars: cited from earlier work.
For test [3], the system named is MRL/lpr lupus-prone mice. Particulars: cited from earlier work.
The subject of test [4] is DSS-induced colitis model in mice. Particulars: cited from earlier work.
Test [5] concerns the target T1, β 5i (chymotrypsin-like activity) (Homo sapiens, UniProt P20618+P28062).
T1 construct: protease activity associated with the proteasome complex in cultured cells; endogenous in cells; host or cells: Ramos cells
Briefly: Cell-Based Proteasome subunit activity/selectivity assay, β5i, substrate (ANW)2Rh110. Particulars: Ramos cells; substrate (ANW)2Rh110 (β5i); highest concentration tested 20 μM; read-out: Ic50:ramos:ac-(anw)2-r110. The method in brief:
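Cell-based fluorogenic assay measuring chymotrypsin-like β5i proteasome activity using the substrate (ANW)2Rh110. Cultured cells received 0.5 μl of 100× 4-fold serial diluted compounds or DMSO per well, were incubated 30 minutes at 37° C, then equilibrated 15 minutes at room temperature. After shaking one minute @ 700 rpm and 120 min room-temperature incubation, fluorescence was read at 500 nm excitation/519 nm emission on an Envision reader.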

Test [6] concerns the target T2, β5c (chymotrypsin-like activity) (Homo sapiens, UniProt P20618+P28074).
T2 construct: protease activity associated with the proteasome complex in cultured cells; endogenous in cells; host or cells: Ramos cells
Description: Cell-Based Proteasome subunit activity/selectivity assay, β5c, substrate (WLA)2Rh110. Particulars: Ramos cells; substrate (WLA)2Rh110 (β5c); highest concentration tested 20 μM; read-out: Ic50:ramos:rh110-(wla)2. The method in brief: (§1)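 Subunit activity in cultured cells read with subunit-selective fluorogenic Rh110 substrates: (LLE)2 for β1c, (PAL)2 for β1i, (KQL)2 for β2c/2i, (WLA)2 for β5c. Cells exposed to 4-fold serially diluted compound (top 20 μM) 30 min at 37 °C, then substrate 120 min at room temperature; fluorescence 500/519 nm.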

Test [7] concerns β 2c/2i (trypsin-like). Briefly: Cell-Based Proteasome subunit activity/selectivity assay, β2c/2i, substrate (KQL)2Rh110. Particulars: Ramos cells; substrate (KQL)2Rh110 (β2c/2i); highest concentration tested 20 μM. The method in brief:
as §1

Test [8] deals with T3, β 1i (caspase-like) (Homo sapiens, UniProt P28065+P40306).
T3 construct: protease activity associated with the proteasome complex in cultured cells; endogenous in cells; host or cells: Ramos cells
Briefly: Cell-Based Proteasome subunit activity/selectivity assay, β1i, substrate (PAL)2Rh110. Particulars: Ramos cells; substrate (PAL)2Rh110 (β1i); highest concentration tested 20 μM; read-out: Ic50:ramos:rh110-(pal)2. The method in brief: as §1

In test [9] the target is T4, β 1c (caspase-like) (Homo sapiens, UniProt P28072+Q99436).
T4 construct: protease activity associated with the proteasome complex in cultured cells; endogenous in cells; host or cells: Ramos cells
Briefly: Cell-Based Proteasome subunit activity/selectivity assay, β1c, substrate (LLE)2Rh110. Particulars: Ramos cells; substrate (LLE)2Rh110 (β1c); highest concentration tested 20 μM; read-out: Ic50:ramos:rh110-(lle)2. The method in brief:
as §1

The structures appear in SMILES notation.

`COc1ccc(C[C@H](NC(=O)[C@H](C)NC(=O)CN2CCOCC2)C(=O)N[C@@H](Cc2ccccc2)C(=O)[C@@]2(C)CO2)cc1` [PR-957]: in [1], the “block of Th1/17 differentiation, B cell effector functions and production of inflammatory cytokines (IL-6, TNF-α, IL-23)” value is recorded as “potently block”. The disease score result in test [2] is on record as “significantly decrease disease score”. Further, in [3], the disease progression result was “prevented disease progression”; the “plasma cells numbers and levels of anti-dsDNA IgG” value was “reduced plasma cells numbers and levels of anti-dsDNA IgG”. Also, the “inflammation and tissue destruction” value in test [4] was “reduced inflammation and tissue destruction”.

Turning to `CCOC(=O)[C@H](CCc1ccccc1)NC(=O)c1cn(CCNC(=O)c2ccc(OC)c(OC)c2OC)nn1` [Example 80, (S)-4-Phenyl-2-({1-[2-(2,3,4-trimethoxy-benzoylamino)-ethyl]-1H-[1,2,3]triazole-4-carbonyl}-amino)-butyric acid ethyl ester], the concentration for half-maximal inhibition (IC50) is 0.447 µM in [5]; at least 20 µM in test [6]; at least 20 µM in test [7]; at least 20 µM in test [8]; at least 20 µM in test [9].

Turning to `CCc1ccc(C(C#N)NC(=O)c2cn(CCN3Cc4cc(OC)ccc4C3=O)nn2)cc1` (centres unmarked) [Example 47, 1-[2-(5-Methoxy-1-oxo-1,3-dihydro-isoindol-2-yl)-ethyl]-1H-[1,2,3]triazole-4-carboxylic acid [cyano-(4-ethyl-phenyl)-methyl]-amide], the IC50 was 1.49 µM in [5]; 7.67 µM in [6]; at least 20 µM in test [7]; at least 20 µM in [8]; at least 20 µM in [9].

Regarding `CCc1ccc(C(C#N)NC(=O)c2cn(CCNC(=O)c3ccc(C(F)(F)F)cc3F)cn2)cc1` (centres unmarked) [Example 94, 1-[2-(2-Fluoro-4-trifluoromethyl-benzoylamino)-ethyl]-1H-imidazole-4-carboxylic acid [cyano-(4-ethyl-phenyl)-methyl]-amide], the 50% inhibitory concentration (IC50) in test [5] is 1.01 µM; in [6], at least 20 µM; in test [7], at least 20 µM; in [8], at least 20 µM; in test [9], at least 20 µM.

`O=C(N[C@@H](CCc1ccccc1)C(=O)O)c1cn(CCNC(=O)c2ccc(C(F)(F)F)cc2F)nn1` [Example 82, (S)-2-({1-[2-(2-Fluoro-4-trifluoromethyl-benzoylamino)-ethyl]-1H-[1,2,3]triazole-4-carbonyl}-amino)-4-phenyl-butyric acid]: the IC50 in test [5] was 0.163 µM; in test [6] it was at least 20 µM; in [7] it was at least 20 µM; in [8], at least 20 µM; in test [9] it was at least 20 µM.

Take `CCc1ccc(C(C#N)NC(=O)c2cn(CCNC(=O)c3cccc(-c4ccccc4)n3)nn2)cc1` (centres unmarked) [Example 15, 6-Phenyl-pyridine-2-carboxylic acid [2-(4-{[cyano-(4-ethyl-phenyl)-methyl]-carbamoyl}-[1,2,3]triazol-1-yl)-ethyl]-amide]: the IC50 was 1.5 µM in test [5]; 7.76 µM in [6]; at least 20 µM in test [7]; at least 20 µM in test [8]; 19.9 µM in test [9].

Turning to `CCc1ccc(C(C#N)NC(=O)c2cn(CCNC(=O)c3cccnc3OC)nn2)cc1` (centres unmarked) [Example 29, N-[2-(4-{[Cyano-(4-ethyl-phenyl)-methyl]-carbamoyl}-[1,2,3]triazol-1-yl)-ethyl]-2-methoxy-nicotinamide], the IC50 in [5] is 3.05 µM; in test [6] it was at least 20 µM; in [7], at least 20 µM; in [8], at least 20 µM; in [9] it was at least 20 µM.

As to `CCc1ccc(C(C#N)NC(=O)c2cn(CCNC(=O)c3cc(Cl)ccn3)nn2)cc1` (centres unmarked) [Example 27, 4-Chloro-pyridine-2-carboxylic acid [2-(4-{[cyano-(4-ethyl-phenyl)-methyl]-carbamoyl}-[1,2,3]triazol-1-yl)-ethyl]-amide], the IC50 in test [5] was 4.52 µM; in test [6] it was at least 20 µM; in test [7] it was at least 20 µM; in [8], at least 20 µM; in [9], at least 20 µM.

For the molecule `CCc1ccc(C(C#N)NC(=O)c2cn(CCNC(=O)c3ccc(OC)c(OC)c3OC)nn2)nc1` (centres unmarked) [Example 63, 1-[2-(2,3,4-Trimethoxy-benzoylamino)-ethyl]-1H-[1,2,3]triazole-4-carboxylic acid [cyano-(5-ethyl-pyridin-2-yl)-methyl]-amide], the IC50 in test [5] was 2.49 µM; in test [6], at least 20 µM; in test [7], at least 20 µM; in test [8] it was at least 20 µM; in test [9], at least 20 µM.

With `CCc1ccc(C(C#N)NC(=O)c2cn(CCNC(=O)c3cncc(Br)c3OC)nn2)cc1` (centres unmarked) [Example 30, 5-Bromo-N-[2-(4-{[cyano-(4-ethyl-phenyl)-methyl]-carbamoyl}-[1,2,3]triazol-1-yl)-ethyl]-4-methoxy-nicotinamide], the IC50 in test [5] is 1.02 µM; in test [6], 6.78 µM; in [7], at least 20 µM; in test [8], at least 20 µM; in test [9], 17 µM.

As to `COc1cc(OC(F)(F)F)ccc1C(=O)NCCn1cc(C(=O)NC(C#N)c2ccc(C(F)(F)F)cc2)nn1` (centres unmarked) [Example 71, 1-[2-(2-Methoxy-4-trifluoromethoxy-benzoylamino)-ethyl]-1H-[1,2,3]triazole-4-carboxylic acid [cyano-(4-trifluoromethyl-phenyl)-methyl]-amide], the IC50 was 5.59 µM in test [5]; at least 20 µM in [6]; at least 20 µM in [7]; at least 20 µM in test [8]; at least 20 µM in test [9].

With `COc1ccc(C(=O)NCCn2cc(C(=O)NCc3ccc(C)cc3)nn2)c(OC)c1OC` [Example 3, 1-[2-(2,3,4-Trimethoxy-benzoylamino)-ethyl]-1H-[1,2,3]triazole-4-carboxylic acid 4-methyl-benzylamide], the IC50 in test [5] was 2.9 µM; in test [6], at least 20 µM; in [7], at least 20 µM; in [8], at least 20 µM; in test [9], at least 20 µM.

In the case of `CCc1ccc(C(C#N)NC(=O)c2cn(CCNC(=O)c3ccc(C(F)(F)F)cn3)nn2)cc1` (centres unmarked) [Example 45, 5-Trifluoromethyl-pyridine-2-carboxylic acid [2-(4-{[cyano-(4-ethyl-phenyl)-methyl]-carbamoyl}-[1,2,3]triazol-1-yl)-ethyl]-amide], the IC50 in test [5] is 1.13 µM; in [6] it was at least 20 µM; in test [7], at least 20 µM; in [8], at least 20 µM; in test [9], at least 20 µM.

What is called IC50 is the concentration needed to halve the response being measured.

Source of the values: patent US20150299143A1, “SUBSTITUTED TRIAZOLE AND IMIDAZOLE COMPOUNDS” (HOFFMANN-LA ROCHE INC., priority 2012, published 2015).
